Measured values taken from the supplement of paper PMC4862054.
“And” between values parts separate entries of the source, which are not always exact repeats. Equal entries are not always repeated.

Assays:
Conditions in all cases: incubation time: 72 h
[1] = test system: BT-474; test: normalised response (% of control), CellTiter-Glo; higher = more viable cells (100 = DMSO, 0 = benzethonium chloride kill control)
Outline: (§1)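 Breast cancer cell lines, seeded at 20 µl suspension per well, were incubated for 72 h in 384-well plates containing compound at 5 concentrations. These concentrations rose in 10-fold steps over a 10,000-fold range set for each compound. CellTox Green fluorescence (485/520 nm) was read, then CellTiter-Glo luminescence after 10 min at room temperature, and each plate was normalised to 0.1 % DMSO (100) and a positive kill control (0). Values are normalised signals, each at one concentration.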

[2] = test system: BT-549; test: as above
Outline: as §1

[3] = test system: CAL-51; test: as above
Outline: as §1

[4] = test system: CAL-85-1; test: as above
Outline: as §1

[5] = test system: HCC1143; test: as above
Outline: as §1

[6] = test system: HDQ-P1; test: as above
Outline: as §1

[7] = test system: MCF-10A; test: as above
Outline: as §1

[8] = test system: MDA-MB-436; test: as above
Outline: as §1

[9] = test system: MDA-MB-468; test: as above
Outline: as §1

[10] = test system: MFM-223; test: as above
Outline: as §1

[11] = test system: SK-BR-3; test: as above
Outline: as §1

[12] = test system: CAL-148; test: normalised viability (% of control), CellTiter-Blue; higher = more viable cells (about 100 = DMSO control)
Experimental: (§2)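 DSRT, CellTiter-Blue viability, 72 h incubation. Signal is normalised to DMSO and benzethonium chloride controls. Value is the normalised response at dose 7.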

[13] = test system: CAL-51; test: as above
Experimental: as §2

[14] = test system: CAL-85-1; test: as above
Experimental: as §2

[15] = test system: DU-4475; test: as above
Experimental: as §2

[16] = test system: MDA-MB-453; test: as above
Experimental: as §2

Compound | normalised response [1] [%] | normalised response [2] [%] | normalised response [3] [%] | normalised response [4] [%] | normalised response [5] [%] | normalised response [6] [%] | normalised response [7] [%] | normalised response [8] [%] | normalised response [9] [%] | normalised response [10] [%] | normalised response [11] [%] | normalised viability [12] | normalised viability [13] | normalised viability [14] | normalised viability [15] | normalised viability [16]
COc1ncc(-c2ccc3nccc(-c4ccnnc4)c3c2)cc1NS(=O)(=O)c1ccc(F)cc1F (1000 nM) | 43 | 13.9 | 6.49 | 21 | 23.6 | 12.8 | 18.8 | 39.4 | 12.7 | 33.4 | 19.1 |  |  |  |  | 
C[C@@]1(C(=O)Nc2ccc(F)nc2)CCCN1c1nc(Nc2cc(C3CC3)n[nH]2)c2cccn2n1 (10000 nM) | 29.8 | 12.7 | 19.9 | 38.9 | 36.1 | 8.28 | 7.53 | 40.6 | 20.4 | 25.2 | 57.4 |  |  |  |  | 
COc1c(C)cnc(Cn2cnc3c(Cl)nc(N)nc32)c1C [BIIB021] (10000 nM) | 27.5 | 38.2 | 11.4 | 18.6 | 31.5 | 20.3 | 13.4 | 41.7 | 23.8 | 35.1 | 34.3 |  |  |  |  | 
CC(C)C[C@H](NC(=O)[C@H](Cc1ccccc1)NC(=O)c1cnccn1)B(O)O [Bortezomib] (1000 nM) | 1.31 | 2.23 | 2.86 | 0.44 | 5.75 | 0.65 | 3.63 | 1.47 | 0.97 | 2.91 | 1.8 |  |  |  |  | 
CS(=O)(=O)OCCCCOS(C)(=O)=O [Busulfan] (100000 nM) | 89.9 | 107 | 110 | 104 | 104 | 98.4 | 102 | 104 | 108 | 107 | 111 |  |  |  |  | 
C#Cc1cccc(Nc2ncnc3cc(OC)c(OCCCCCCC(=O)NO)cc23)c1 [CUDC-101] (10000 nM) | 8.24 | 18 | 12.8 | 1.02 | 15.1 | 33.4 | 8.27 | 33.5 | 9.04 | 26.4 | 0.76 |  |  |  |  | 
COc1cccc2c1C(=O)c1c(O)c3c(c(O)c1C2=O)C[C@@](O)(C(C)=O)C[C@@H]3O[C@H]1C[C@H](N)[C@H](O)[C@H](C)O1 [Daunorubicin] (1000 nM) | 19 | 10.7 | 3.08 | 7.68 | 23.9 | 27.9 | 27.1 | 22.8 | 8.42 | 34.7 | 11.6 |  |  |  |  | 
CN1CCN(c2ccc3nc(-c4c(N)c5c(F)cccc5[nH]c4=O)[nH]c3c2)CC1 [Dovitinib] (10000 nM) | 91.5 | 95.6 | 127 | 95.9 | 90.1 | 89.8 | 100 | 87.6 | 78.1 | 77.6 | 91.5 |  |  |  |  | 
O=c1[nH]c(=O)n([C@H]2C[C@H](O)[C@@H](CO)O2)cc1F [Floxuridine] (10000 nM) | 59 | 80.1 | 29.4 | 23.6 | 77.6 | 82.8 | 84.7 | 57.3 | 60.7 | 103 | 44.8 |  |  |  |  | 
O=c1[nH]cc(F)c(=O)[nH]1 [Fluorouracil] (10000 nM) | 92.7 | 91.7 | 85.3 | 57.5 | 76 | 91.8 | 88.4 | 75.8 | 77.4 | 105 | 74.8 |  |  |  |  | 
C[C@@H]1C=C2C(=O)O[C@@H]3CC[C@H](C1)[C@]23O [Galiellalactone] (50000 nM) | 108 | 44.3 | 71.1 | 72.2 | 100 | 93.9 | 106 | 89.5 | 39.1 | 105 | 107 |  |  |  |  | 
COC1=C2C[C@@H](C)C[C@H](OC)[C@H](O)[C@@H](C)/C=C(\C)[C@H](OC(N)=O)[C@@H](OC)/C=C\C=C(/C)C(=O)NC(=CC1=O)C2=O [Geldanamycin] (10000 nM) | 8.17 | 19.2 | 6.33 | 10.5 | 24.1 | 19 | 10.7 | 24.4 | 7.56 | 20.3 | 30.7 |  |  |  |  | 
CS(=O)(=O)CCNCc1ccc(-c2ccc3ncnc(Nc4ccc(OCc5cccc(F)c5)c(Cl)c4)c3c2)o1 [Lapatinib] (1000 nM) | 96.8 | 105 | 120 | 73.5 | 95.4 | 69.5 | 43.5 | 103 | 83.6 | 99.5 | 28.5 | 82.4% and 94% | 105% and 94.6% | 66.4% and 66.5% | 94.5% and 86.5% | 38% and 36.7%
Cn1cnc2c(F)c(Nc3ccc(Br)cc3F)c(C(=O)NOCCO)cc21 [MEK-162] (1000 nM) | 73.9 | 92.7 | 76.4 | 78.8 | 86.5 | 71.5 | 38.9 | 94 | 88.3 | 96.2 | 94.5 |  |  |  |  | 
CCOc1cc2ncc(C#N)c(Nc3ccc(OCc4ccccn4)c(Cl)c3)c2cc1NC(=O)/C=C/CN(C)C [Neratinib] (1000 nM) | 79.1 | 56.1 | 45 | 42.6 | 72.7 | 46.3 | 25.4 | 56.3 | 36.4 | 62.8 | 16.2 |  |  |  |  | 
COc1ccc(C2=N[C@@H](c3ccc(Cl)cc3)[C@@H](c3ccc(Cl)cc3)N2C(=O)N2CCNC(=O)C2)c(OC(C)C)c1 [Nutlin-3] (10000 nM) | 93.3 | 87 | 50.7 | 97.3 | 92.9 | 97.1 | 89.2 | 102 | 78.9 | 93.3 | 99.1 |  |  |  |  | 
COC1=CC(c2cc3ccccc3[nH]2)=N/C1=C\c1[nH]c(C)cc1C [Obatoclax] (10000 nM) | 70.5 | 29.3 | 7.62 | 76.3 | 92 | 91.1 | 95.8 | 81.6 | 79.3 | 71.2 | 64.3 |  |  |  |  | 
CC(=O)O[C@H]1C(=O)[C@@]2(C)[C@H]([C@H](OC(=O)c3ccccc3)[C@]3(O)C[C@H](OC(=O)[C@H](O)[C@@H](NC(=O)c4ccccc4)c4ccccc4)C(C)=C1C3(C)C)[C@]1(OC(C)=O)CO[C@@H]1C[C@@H]2O [Paclitaxel] (1000 nM) | 29.5 | 12.1 | 26.2 | 20.4 | 31.2 | 61.2 | 32.3 | 27 | 23.9 | 38.8 | 11.2 |  |  |  |  | 
CC(C)(C)c1cc(NC(=O)Nc2ccc(-c3cn4c(n3)sc3cc(OCCN5CCOCC5)ccc34)cc2)no1 [Quizartinib] (1000 nM) | 101 | 91.7 | 125 | 106 | 108 | 103 | 109 | 109 | 114 | 105 | 103 |  |  |  |  | 
O=C(c1ccc(OCCN2CCCCC2)cc1)c1c(-c2ccc(O)cc2)sc2cc(O)ccc12 [Raloxifene] (10000 nM) | 62.3 | 70.7 | 104 | 76.7 | 101 | 86.8 | 107 | 71.8 | 46.1 | 62.5 | 82.7 |  |  |  |  | 
Cn1c(=O)c(F)c(Nc2ccc(I)cc2F)c2c(=O)n(C[C@@H](O)CO)cnc21 [TAK-733] (1000 nM) | 57.4 | 84 | 78.2 | 43.1 | 76.7 | 55.3 | 35.5 | 76.8 | 73.6 | 70.2 | 105 |  |  |  |  | 
CCS(=O)(=O)c1cccc(-c2cc(C(=O)NC3CCN(C)CC3)c(C)c3[nH]c4ncc(C)cc4c23)c1 [TAK-901] (1000 nM) | 31.6 | 28.7 | 49.8 | 73.4 | 44.4 | 39.4 | 25.4 | 57 | 36.4 | 45.9 | 80.4 |  |  |  |  | 
